Measurements published in patent US11896704B2, “Compounds useful for the treatment and/or care of the skin, hair, nails and/or mucous membranes” (LUBRIZOL ADVANCED MATERIALS, INC., priority 2017, dated 2024).

Key:
JARID1A gene = JARID1A gene expression in synchronized human epidermal keratinocytes (HEKa), real time PCR arrays; format: cell-based; conditions: 0.5 mg/ml, one experiment
Experimental: In Vitro Study of JARID1A Gene Expression in Synchronized Human Epidermal Keratinocytes from Adult (HEKa) Using Real Time PCR Arrays.
HEKa cells (Life Technologies) are seeded at 3.0×10^5 cells/well in 12-well plates (2 wells per condition) and incubated in culture medium, Keratinocyte growth medium supplemented with Mix C39016-CaCl2 solution (Promocell). For synchronization, cells were subjected to two alternative cycles of 12 hours each at 37° C. in 5% CO2 humidified air (day mode) and 33° C. in 5% CO2 humidified air (night mode). 12 hours after starting synchronization, cells are incubated with the peptides at 0.5 mg/ml or (5 μg/ml) in culture medium, depending on the toxicity effects of each peptide (non-toxic conditions are selected). Cells treated with medium alone are used as basal condition.
At the end of synchronization, cell lysates are collected at two different times: 7:30 hour (early morning point) and 11:30 hour (midday point). Briefly, cells are lysed directly in the wells, and RNA is purified following the protocol described on the RNeasy™ Mini kit (Qiagen) according to the manufacture's protocol. After RNA elution, quantification and analysis of purity of RNA samples are performed with a nanodrop (Thermo). For each sample, 3 μg of high quality RNA is retrotranscribed with iScript Advanced™ (BioRad) in a final volume of 20 μl. Complete reaction mix is incubated in a thermal cycler (Eppendorf) at 42° C. for 30 minutes, and the reaction is stopped at 85° C. for 5 minutes. Complementary DNA is amplified by qPCR in a real-time PCR thermocycler (BioRad) using SYBR Green Supermix™ (BioRad) in the 96-well plate for use with SYBR® Green (BioRad). SYBR Green binds to double-stranded DNA molecules and emits fluorescence which is quantified, and the fluorescence intensity is proportional to the amount of the product in the PCR reaction. Cycling conditions in BioRad CFX96™ instrument are: 95° C. for 3 minutes, followed by 40 cycles of denaturing at 95° C. for 5 seconds, annealing and elongation at 60° C. for 30 seconds. GAPDH (Glyceraldehyde 3-phosphate dehydrogenase), TBP (TATA box binding protein) and HRPT1 (hypoxanthine phosphoribosyltransferase 1) are used as endogenous controls. Fold change relative to the expression of the sample genes and reference genes is calculated using normalized expression (AA(Ct)) method using CFX Manager Software™ (BioRad).
Fold induction of JARID1A gene at 7:30 hour with respect to basal conditions at 7:30 hour for the samples tested are shown in Table 7. The data for fold induction represent the value of one experiment.

[1] = tested on: PER2 (period circadian clock 2); experiment: PER genes expression in young and old HEKa, real time PCR: PER2; format: cell-based, Human; conditions: 0.5 mg/ml
Experimental: (§1) In Vitro Study of PER Genes Expression in Young and Old Human Epidermal Keratinocytes (HEKa) Using Real Time PCR Arrays. Human Epidermal Keratinocytes, (HEKa) cells (Life Technologies) from donor one and donor two are seeded at 3.0×10^5 cells/well in 12-well plates and incubated in culture medium, Keratinocyte growth medium supplemented with Mix C39016-CaCl2 solution (Promocell). For synchronization, cells were subjected to two alternative cycles of 12 hours each at 37° C. in 5% CO2 humidified air (day mode) and 33° C. in 5% CO2 humidified air (night mode). 12 hours after starting synchronization, cells are incubated with the synthetic peptide […] (PEP-1, H-[SEQ ID. NO. 2]-NH2) at 0.5 mg/ml in culture medium. Cells treated with medium alone are used as basal condition. At the end of synchronization, cell lysates are collected at 7:30 hour (early morning point). […] After RNA elution, quantification and analysis of purity of RNA samples are performed with a nanodrop (Thermo). […] SYBR Green binds to double-stranded DNA molecules and emits fluorescence which is quantified, and the fluorescence intensity is proportional to the amount of the product in the PCR reaction. […] Fold change relative to the expression of the sample genes and reference genes is calculated using normalized expression (ΔΔ(Ct)) method using CFX Manager SoftwareTM (BioRad).

[2] = tested on: PER3 (period circadian clock 3); experiment: PER genes expression in young and old HEKa, real time PCR: PER3; format: cell-based, Human; conditions: 0.5 mg/ml
Experimental: as §1

## H-Phe-Trp-Met-Lys-Arg-Lys-Arg-Val-Pro-NH2 (H-FWMKRKRVP-NH2) [PEP-1]
JARID1A gene
  Fold induction with respect to Basal condition at 7:30h (%): 212.39%
[1]; PER2, HEKa from donor one
  Fold induction at 7:30 h respect to Basal condition (%): 172.0%
[1]; PER2, HEKa from donor two
  Fold induction at 7:30 h respect to Basal condition (%): 292.0%
[2]; PER3, HEKa from donor one
  Fold induction at 7:30 h respect to Basal condition (%): 182.5%
[2]; PER3, HEKa from donor two
  Fold induction at 7:30 h respect to Basal condition (%): 249.0%
